Experimental data from ChEMBL document CHEMBL5154929, “Optimization of the Natural Product Calothrixin A to Discover Novel Dual Topoisomerase I and II Inhibitors with Improved Anticancer Activity” (J Med Chem, 2022).
Calls of active or inactive are those of the source. The rule behind the calls is not given here.

What was measured:
[1] = Toxicity in BALB/c nude mouse xenografted with human A-375 cells assessed as tolerability treated after 7 days of tumor implantation on right flank subcutaneously at 20 mg/kg, iv administered once per 2 days for 14 days measured once every two days; format: organism-based; conditions: in vivo, 336 h, time 14 day
A-375 [2] = assay: Induction of cell cycle arrest in human A-375 cells assessed as accumulation of cells at S phase at 40 nM incubated for 24 hrs by PI based flow cytometric analysis (RVB = 26.73%); format: functional
[3] = target: T1, DNA topoisomerase 1 (Homo sapiens) (UniProt P11387); assay: Poison activity at human topoisomerase I assessed as stabilization of enzyme-DNA cleavage complex by measuring nicked DNA formation at 100 uM after 60 mins by agarose gel electrophoresis method
T1 sequence (whole entry): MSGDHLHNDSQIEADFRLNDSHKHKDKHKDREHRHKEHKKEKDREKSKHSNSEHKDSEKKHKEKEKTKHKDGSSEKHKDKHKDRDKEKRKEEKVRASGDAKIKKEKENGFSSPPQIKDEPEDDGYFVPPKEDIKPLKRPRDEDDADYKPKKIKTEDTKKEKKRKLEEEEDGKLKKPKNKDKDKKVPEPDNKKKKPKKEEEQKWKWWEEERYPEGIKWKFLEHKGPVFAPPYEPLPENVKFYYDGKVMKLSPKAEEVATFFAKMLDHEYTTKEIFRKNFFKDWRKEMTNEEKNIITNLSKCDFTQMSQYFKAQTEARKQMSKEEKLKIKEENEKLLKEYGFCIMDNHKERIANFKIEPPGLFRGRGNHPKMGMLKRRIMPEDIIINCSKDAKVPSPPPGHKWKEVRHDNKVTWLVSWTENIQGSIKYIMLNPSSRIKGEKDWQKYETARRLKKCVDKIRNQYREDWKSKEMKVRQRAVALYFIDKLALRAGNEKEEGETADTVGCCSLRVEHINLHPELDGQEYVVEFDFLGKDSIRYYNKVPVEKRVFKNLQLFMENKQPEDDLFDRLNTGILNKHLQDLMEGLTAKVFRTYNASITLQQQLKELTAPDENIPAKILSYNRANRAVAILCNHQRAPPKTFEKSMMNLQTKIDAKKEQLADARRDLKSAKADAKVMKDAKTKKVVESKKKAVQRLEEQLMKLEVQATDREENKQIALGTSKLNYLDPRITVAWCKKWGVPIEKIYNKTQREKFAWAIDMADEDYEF

[4] = Metabolic stability in mouse plasma upto 5 hrs by HPLC-UV analysis; format: ADME, cell-free
[5] = target: DNA topoisomerase 2-alpha (Homo sapiens) (UniProt P11388); assay: Poison activity at human topoisomerase II-alpha assessed as stabilization of enzyme-DNA cleavage complex by measuring nicked DNA formation at 100 uM after 60 mins by agarose gel electrophoresis method
Chain of DNA topoisomerase 2-alpha (Homo sapiens) (P11388 whole entry): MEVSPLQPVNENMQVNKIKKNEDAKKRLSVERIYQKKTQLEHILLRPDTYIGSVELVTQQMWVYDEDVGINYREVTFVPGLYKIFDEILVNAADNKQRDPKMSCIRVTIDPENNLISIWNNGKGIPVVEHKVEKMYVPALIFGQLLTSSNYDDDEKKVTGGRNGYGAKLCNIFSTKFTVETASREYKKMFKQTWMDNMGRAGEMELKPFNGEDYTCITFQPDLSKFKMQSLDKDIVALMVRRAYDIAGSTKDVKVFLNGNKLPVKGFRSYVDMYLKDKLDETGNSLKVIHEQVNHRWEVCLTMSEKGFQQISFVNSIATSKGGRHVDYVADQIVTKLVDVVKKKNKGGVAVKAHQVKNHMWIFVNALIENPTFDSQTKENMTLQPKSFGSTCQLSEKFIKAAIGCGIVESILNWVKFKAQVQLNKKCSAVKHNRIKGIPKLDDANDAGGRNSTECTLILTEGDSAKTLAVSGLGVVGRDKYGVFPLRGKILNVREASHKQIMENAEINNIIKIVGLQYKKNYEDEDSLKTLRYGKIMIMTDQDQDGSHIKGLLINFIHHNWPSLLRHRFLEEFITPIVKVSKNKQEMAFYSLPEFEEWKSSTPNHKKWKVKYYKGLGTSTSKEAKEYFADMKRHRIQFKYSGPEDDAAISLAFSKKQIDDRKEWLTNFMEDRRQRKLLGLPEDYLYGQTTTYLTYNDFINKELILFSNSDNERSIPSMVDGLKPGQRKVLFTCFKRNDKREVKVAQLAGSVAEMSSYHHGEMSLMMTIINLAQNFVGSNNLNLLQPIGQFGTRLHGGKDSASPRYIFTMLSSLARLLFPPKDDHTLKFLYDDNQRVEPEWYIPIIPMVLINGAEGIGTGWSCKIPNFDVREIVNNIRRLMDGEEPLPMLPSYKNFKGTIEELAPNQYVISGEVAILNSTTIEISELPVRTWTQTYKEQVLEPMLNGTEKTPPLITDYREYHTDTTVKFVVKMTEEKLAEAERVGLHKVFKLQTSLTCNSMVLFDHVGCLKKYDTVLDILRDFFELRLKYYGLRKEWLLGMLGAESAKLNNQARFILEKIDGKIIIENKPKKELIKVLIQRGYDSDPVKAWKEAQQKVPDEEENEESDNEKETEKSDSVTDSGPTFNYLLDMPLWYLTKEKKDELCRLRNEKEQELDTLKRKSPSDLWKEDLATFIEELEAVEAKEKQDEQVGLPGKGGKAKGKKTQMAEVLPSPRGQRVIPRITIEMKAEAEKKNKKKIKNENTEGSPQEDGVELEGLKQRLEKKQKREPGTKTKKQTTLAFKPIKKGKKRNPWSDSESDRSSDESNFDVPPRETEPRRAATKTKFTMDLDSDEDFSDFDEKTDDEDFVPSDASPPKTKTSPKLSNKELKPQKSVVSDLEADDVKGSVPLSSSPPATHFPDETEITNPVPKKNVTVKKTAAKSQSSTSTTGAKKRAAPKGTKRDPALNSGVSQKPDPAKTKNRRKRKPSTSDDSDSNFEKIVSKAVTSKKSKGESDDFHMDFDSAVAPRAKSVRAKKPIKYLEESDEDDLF

[6] = Selectivity index, ratio of IC50 for human HEK293T cells to IC50 for human A-375 cells; format: toxicity; conditions: HEK293T cells and A-375 cells, read-out: Ratio IC50
A-375 [7] = assay: Induction of cell cycle arrest in human A-375 cells assessed as accumulation of cells at G2 phase at 80 nM incubated for 24 hrs by PI based flow cytometric analysis (RVB = 20.34%); format: functional
HCT-116 [8] = assay: Inhibition of colony formation in human HCT-116 cells at 20 to 40 nM incubated for 48 hrs by crystal violet staining method; format: functional, cell-based; conditions: dose 20-40 nM
[9] = target: DNA topoisomerase 2-alpha (Homo sapiens) (UniProt P11388); assay: Inhibition of human DNA topoisomerase II-alpha relaxation activity at 100 uM incubated for 30 mins by chemiDoc system
[10] = Aqueous solubility of the compound in saline equilibrating for 24 hrs by HPLC analysis; format: physicochemical
A-375 [11] = assay: Induction of apoptosis in human A-375 cells assessed as increase in expression level of Bax measured after 24 hrs by Western blotting analysis; format: functional, cell-based; conditions: dose 40-120 nM, DDE = dose-dependent effect
[12] = Cytotoxicity against human L02 cells measured after 72 hrs by MTT assay; format: toxicity, cell-based
A-375 [13] = assay: Antimigratory activity in human A-375 cells assessed as reduction in cell migration at 10 to 40 nM incubated for 24 hrs by crystal violet staining method; format: functional, cell-based; conditions: dose 10-40 nM
[14] = Cytotoxicity against human HEK293T cells measured after 72 hrs by MTT assay; format: toxicity, cell-based, HEK-293T
[15] = Microsomal stability in mouse liver microsomes assessed as half life measured at 2 ug/ml upto 60 mins in presence of NADPH generating system and UGT incubation system by phase II metabolic stability kit method; format: ADME, Microsome; conditions: dose 2 µg/ml
A-375 [16] = assay: Induction of cell cycle arrest in human A-375 cells assessed as accumulation of cells at G1 phase at 40 nM incubated for 24 hrs by PI based flow cytometric analysis (RVB = 52.94%); format: functional
A-375 [17] = assay: Induction of apoptosis in human A-375 cells at 80 nM measured after 8 hrs by Annexin V-FITC and DAPI staining based flow cytometric analysis; format: functional
A-375 [18] = assay: (§1) In vivo induction of apoptosis in human A-375 cells xenografted in BALB/c nude mouse treated after 7 days of tumor implantation on right flank subcutaneously at 10 to 20 mg/kg, iv administered once per 2 days for 14 days by measuring TUNEL positive cells under a light microscope; format: functional, organism-based; conditions: dose 10-20 mg/kg, time 14.0 day
A-375 [19] = assay: Antimigratory activity in human A-375 cells assessed as reduction in cell migration incubated for 24 hrs by wound healing assay; format: functional, cell-based; conditions: dose 10-40 nM, DDE = dose-dependent effect
[20] = Tmax in Kunming mouse plasma at 10 mg/kg, iv administered as single dose measured after 5 to 360 mins by HPLC analysis; format: ADME, organism-based; conditions: time 5-360 min
A-375 [21] = assay: as §1, with “mouse assessed as […]” for “mouse”; format: functional, organism-based; conditions: dose 10-20 mg/kg, time 14.0 day
[22] = In vivo acute toxicity in Balb/C mouse assessed as pathological damage in liver at 50 mg/kg, iv administered once per 2 days for 7 days measured 24 hrs after last dose by H and E staining method; format: organism-based; conditions: 168 h, time 7 day
HCT-116 [23] = assay: Cytotoxicity against human HCT-116 cells expressing high level of topoisomerase I/II measured after 72 hrs by MTT assay; format: functional, cell-based; conditions: HCT-116, 72 h
A-375 [24] = assay: Induction of cell cycle arrest in human A-375 cells assessed as accumulation of cells at S phase at 80 nM incubated for 24 hrs by PI based flow cytometric analysis (RVB = 26.73%); format: functional
A-375 [25] = assay: Induction of apoptosis in human A-375 cells assessed as increase in expression level of C-caspase-9 measured after 24 hrs by Western blotting analysis; format: functional, cell-based; conditions: dose 40-120 nM, DDE = dose-dependent effect
[26] = Toxicity in BALB/c nude mouse xenografted with human A-375 cells assessed as body weight loss treated after 7 days of tumor implantation on right flank subcutaneously at 10 to 20 mg/kg, iv administered once per 2 days for 14 days measured once every two days; format: organism-based; conditions: in vivo, 336 h, dose 10-20 mg/kg, time 14 day
[27] = In vivo acute toxicity in Balb/C mouse assessed as tolerability at 50 mg/kg, iv administered once per 2 days for 7 days measured every other day; format: organism-based; conditions: 168 h, time 7 day

SMILES: O=C1c2c[n+]([O-])c3ccccc3c2C(=O)c2c1c1ccccc1n2Cc1cn([C@@H]2C[C@H](O)[C@@H](CO)O2)nn1
- Activity [1]: Non-Toxic
- Activity (A-375 [2]): 43.2%
- Activity [3]: Active
- Stability [4]: Stable
- Activity [5]: Active
- selectivity ratio [6]: 40
- Activity (A-375 [7]): 6.88%
- inhibition (HCT-116 [8]): Active
- inhibition [9]: Active
- solubility at 24 h [10]: > 5000 µg/mL
- Activity (A-375 [11]): Dde
- IC50 at 72 h [12]: 630 nM
- Activity (A-375 [13]): Active
- IC50 at 72 h [14]: 820 nM
- half-life at 2 ug/ml [15]: 40 min
- Activity (A-375 [16]): 28.94%
- Activity (A-375 [17]): 7.14%
- Activity (A-375 [18]): Active
- Activity (A-375 [19]): Dde
- Tmax [20]: 5 min
- Activity (A-375 [21]): Active
- Activity [22]: Non-Toxic
- IC50 (HCT-116 [23]): 50 nM
- Activity (A-375 [24]): 58.13%
- Activity (A-375 [25]): Dde
- Activity [26]: Non-Toxic
- Activity [27]: Non-Toxic
